Results from ChEMBL document CHEMBL4354785, “Recent insights into natural product inhibitors of matrix metalloproteinases” (Medchemcomm, 2019).

Legend:
[1] = molecular target: 72 kDa type IV collagenase (Homo sapiens, UniProt P08253); test: Inhibition of recombinant human MMP2 using fluorescently conjugated gelatin as substrate
[2] = molecular target: T1, Matrix metalloproteinase-9 (Homo sapiens, UniProt P14780); test: Inhibition of human MMP9 (107 to 707 residues) expressed in Escherichia coli BL21(DE3) cells
[3] = molecular target: T1, Matrix metalloproteinase-9; test: Inhibition of human MMP9 catalytic domain using Mca-PLGL-Dpa-AR-NH2 as substrate by fluorescence method

Sequence of 72 kDa type IV collagenase (P08253 whole entry, the tested form may be a part): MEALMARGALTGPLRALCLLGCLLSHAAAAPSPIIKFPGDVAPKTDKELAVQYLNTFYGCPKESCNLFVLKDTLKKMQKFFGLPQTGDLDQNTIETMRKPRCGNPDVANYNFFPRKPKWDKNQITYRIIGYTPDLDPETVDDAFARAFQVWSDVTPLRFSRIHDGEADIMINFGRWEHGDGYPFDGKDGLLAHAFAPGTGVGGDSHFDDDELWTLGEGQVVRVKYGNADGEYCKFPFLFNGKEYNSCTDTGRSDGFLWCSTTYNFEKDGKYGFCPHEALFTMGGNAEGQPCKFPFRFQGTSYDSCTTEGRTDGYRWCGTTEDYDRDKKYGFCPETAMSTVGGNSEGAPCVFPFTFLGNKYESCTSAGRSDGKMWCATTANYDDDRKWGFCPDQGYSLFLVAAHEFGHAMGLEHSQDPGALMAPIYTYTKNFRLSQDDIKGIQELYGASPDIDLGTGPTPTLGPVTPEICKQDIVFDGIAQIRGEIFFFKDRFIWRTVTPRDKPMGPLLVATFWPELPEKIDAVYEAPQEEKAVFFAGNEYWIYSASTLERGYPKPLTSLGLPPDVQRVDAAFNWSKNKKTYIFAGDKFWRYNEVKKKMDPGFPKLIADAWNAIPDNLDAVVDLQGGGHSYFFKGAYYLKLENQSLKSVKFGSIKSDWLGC
T1 sequence (P14780 whole entry, the tested form may be a part): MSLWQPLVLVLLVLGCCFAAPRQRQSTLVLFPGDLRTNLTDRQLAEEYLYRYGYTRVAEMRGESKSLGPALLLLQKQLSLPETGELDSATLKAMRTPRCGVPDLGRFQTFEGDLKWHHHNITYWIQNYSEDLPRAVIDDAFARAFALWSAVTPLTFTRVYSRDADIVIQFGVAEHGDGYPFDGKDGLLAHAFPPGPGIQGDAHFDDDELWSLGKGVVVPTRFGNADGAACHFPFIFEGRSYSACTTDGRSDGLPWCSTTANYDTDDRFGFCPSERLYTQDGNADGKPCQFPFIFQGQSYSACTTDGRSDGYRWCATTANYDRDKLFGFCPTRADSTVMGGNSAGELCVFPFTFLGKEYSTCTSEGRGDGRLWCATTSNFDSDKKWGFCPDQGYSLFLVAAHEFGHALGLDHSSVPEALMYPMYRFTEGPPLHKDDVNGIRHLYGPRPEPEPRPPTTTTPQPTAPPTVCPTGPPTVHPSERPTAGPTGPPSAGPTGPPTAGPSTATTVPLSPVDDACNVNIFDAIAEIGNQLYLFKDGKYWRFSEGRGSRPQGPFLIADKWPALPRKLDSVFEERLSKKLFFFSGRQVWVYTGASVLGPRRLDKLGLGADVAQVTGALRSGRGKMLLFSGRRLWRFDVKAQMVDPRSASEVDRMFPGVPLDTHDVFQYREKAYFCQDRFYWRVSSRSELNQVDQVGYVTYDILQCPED

IC50 [1]	Compound	further results
6.5 µM	CCCCC/C=C/CCCCCCCc1cccc(O)c1C(=O)O	–
–	O=C(/C=C/c1ccc(O)c(O)c1)Oc1ccc2c(c1)C(=O)OCC2	IC50 [2]: 1.39 µM
–	COc1ccc(/C=C/C(=O)O[C@H](C(=O)O)[C@](O)(Cc2ccc(O)c(O)c2)C(=O)O)cc1O [CIMICIFUGIC ACID B]	IC50 [3]: 13.4 µM
6.3 µM	CCCCCC/C=C\CCCCCCCc1cccc(O)c1C(=O)O [GINGKOLIC ACID]	–
